Measured values reported in patent US5245077A, “L-buthionine-S-sulfoximine and methods of making” (Cornell Research Foundation Inc., priority 1992, dated 1993).

What was measured:
[1] = test system: tissue glutathione levels; assay: Glutathione depletion in mice (tissue glutathione levels); type: in vivo; conditions: i.p., 2 hours after injection
Method: Tissue glutathione levels were determined as described in Griffith, O. W., Anal. Biochem. 106, 207-212, (1980).
Thirty two mice were given physiological saline, 4 mice were given 0.4 mmole/kg of L-buthionine-SR-sulfoximine, 4 mice were given 0.2 mmole/kg of L-buthionine-S-sulfoximine, 4 mice were given 0.2 mmoles/kg of L-buthionine-R-sulfoximine and 4 mice were given 0.4 mmole/kg or D-buthionine-SR-sulfoximine. All injections were given intraperitoneally. Two hours after injection, the mice were killed, and the glutathione levels in the brain, liver, pancreas, and kidney were determined.

[2] = test system: Glutathione synthesis in tissues and cells; conditions: in vitro or in vivo; cited from earlier work
[3] = test system: Tumors in mice; conditions: with ionizing radiation and various chemotherapeutic agents; cited from earlier work
[4] = test system: cystine transport; conditions: cited from earlier work
[5] = biological target: T1, gamma-glutamylcysteine synthetase (Rattus norvegicus, UniProt P19468); conditions: cited from earlier work
T1 sequence (P19468 1-637): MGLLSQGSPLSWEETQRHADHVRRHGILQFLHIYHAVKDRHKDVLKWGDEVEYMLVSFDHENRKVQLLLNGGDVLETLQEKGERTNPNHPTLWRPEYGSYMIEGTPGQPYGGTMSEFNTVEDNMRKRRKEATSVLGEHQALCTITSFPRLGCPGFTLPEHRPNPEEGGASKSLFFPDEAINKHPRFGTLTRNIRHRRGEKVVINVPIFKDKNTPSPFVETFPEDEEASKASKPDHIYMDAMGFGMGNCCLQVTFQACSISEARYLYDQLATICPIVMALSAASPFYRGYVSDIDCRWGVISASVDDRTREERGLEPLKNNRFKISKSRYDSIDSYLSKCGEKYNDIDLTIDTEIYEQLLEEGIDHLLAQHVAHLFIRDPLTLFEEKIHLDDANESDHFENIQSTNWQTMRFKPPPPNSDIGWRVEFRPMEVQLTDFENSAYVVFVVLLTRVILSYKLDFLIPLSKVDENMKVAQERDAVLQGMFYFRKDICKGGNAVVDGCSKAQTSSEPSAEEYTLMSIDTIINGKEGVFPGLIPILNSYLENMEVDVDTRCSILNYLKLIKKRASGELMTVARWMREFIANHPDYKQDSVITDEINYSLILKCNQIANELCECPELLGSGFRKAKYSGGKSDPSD
T1 sequence (P48508 1-274 partner): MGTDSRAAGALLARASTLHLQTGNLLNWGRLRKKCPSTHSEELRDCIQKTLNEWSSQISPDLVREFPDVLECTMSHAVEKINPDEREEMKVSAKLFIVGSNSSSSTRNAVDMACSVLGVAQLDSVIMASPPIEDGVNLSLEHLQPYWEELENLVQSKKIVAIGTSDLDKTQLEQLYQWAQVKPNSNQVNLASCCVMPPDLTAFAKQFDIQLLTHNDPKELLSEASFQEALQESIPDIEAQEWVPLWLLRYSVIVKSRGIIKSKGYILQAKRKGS

CCCCS(=N)(=O)CC[C@H](N)C(=O)O (stereo partly drawn) [L-buthionine-SR-sulfoximine, L-(S-n-butyl)homocysteine-SR-sulfoximine]
glutathione level of kidney ([1]; kidney, L-SR and D-SR 0.4 mmole/kg, L-S and L-R 0.2 mmole/kg): 27 % of control | glutathione level of liver ([1]; liver, SR 0.4 mmole/kg, S 0.2 mmole/kg): 52 % of control | glutathione level of pancreas ([1]; pancreas, SR 0.4 mmole/kg, S 0.2 mmole/kg): about 42 % of control | glutathione synthesis in tissues and cells (in words) [2]: Glutathione synthesis is decreased | effect on tumors in mice (in words) [3]: become glutathione depleted and more susceptible to the cytotoxic effects of ionizing radiation and various chemotherapeutic agents | effect on cystine transport (in words) [4]: deleterious effect on cystine transport | inhibition of gamma-glutamylcysteine synthetase (in words) [5]: potent and specific inhibitor of gamma-glutamylcysteine synthetase
